Series [1] concerns Alopecurus myosuroides (ALOMY). Nature of the series: Example A pre-emergence herbicidal activity, glasshouse pot test. It counts as in vivo. Particulars: 480 h, evaluated 20 days after spraying, read-out: Pre-emergence activity ALOMY (100=total damage to plant; 0=no damage to plant); for pest or weed control at 500 g/ha: rate 500 g/ha; for pest or weed control at 250 g/ha: rate 250 g/ha. A digest of the protocol: (§1)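 Seeds are sown in soil-filled pots and sprayed either 1 day later (pre-emergence) or after 10 days of growth (post-emergence) with the active ingredient in an aqueous formulation containing an emulsifier, solvents and a surfactant. Injury is scored after 20 further days (pre) or 15 further days (post).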

For series [2], the system named is Avena fatua (AVEFA). The description is as above. It counts as in vivo. The conditions noted are these: 480 h, evaluated 20 days after spraying, read-out: Pre-emergence activity AVEFA (100=total damage to plant; 0=no damage to plant); for pest or weed control at 500 g/ha: rate 500 g/ha; for pest or weed control at 250 g/ha: rate 250 g/ha. A digest of the protocol: as §1

For series [3], the system named is Digitaria sanguinalis (DIGSA). The description is as above. It counts as in vivo. The conditions noted are these: 480 h, evaluated 20 days after spraying, read-out: Pre-emergence activity DIGSA (100=total damage to plant; 0=no damage to plant); for pest or weed control at 500 g/ha: rate 500 g/ha; for pest or weed control at 250 g/ha: rate 250 g/ha. Put shortly: as §1

The test system of series [4] is Echinochloa crus-galli (ECHCG). The description is as above. Format: in vivo. The conditions noted are these: 480 h, evaluated 20 days after spraying, read-out: Pre-emergence activity ECHCG (100=total damage to plant; 0=no damage to plant); for pest or weed control at 500 g/ha: rate 500 g/ha; for pest or weed control at 250 g/ha: rate 250 g/ha. Put shortly: as §1
Series [5] relates to Lolium perenne (LOLPE). The description is as above. Format: in vivo. Particulars: 480 h, evaluated 20 days after spraying, read-out: Pre-emergence activity LOLPE (100=total damage to plant; 0=no damage to plant); for pest or weed control at 500 g/ha: rate 500 g/ha; for pest or weed control at 250 g/ha: rate 250 g/ha. A digest of the protocol: as §1
Series [6] relates to Setaria faberi (SETFA). Described as above. Particulars: 480 h, evaluated 20 days after spraying, read-out: Pre-emergence activity SETFA (100=total damage to plant; 0=no damage to plant); for pest or weed control at 500 g/ha: rate 500 g/ha; for pest or weed control at 250 g/ha: rate 250 g/ha. It counts as in vivo. A digest of the protocol:
as §1

Series [7] deals with Alopecurus myosuroides (ALOMY). Nature of the series: Example A post-emergence herbicidal activity, glasshouse pot test. Format: in vivo. The conditions noted are these: 360 h, rate 125 g/ha, evaluated 15 days after spraying, read-out: Post-emergence activity ALOMY (100=total damage to plant; 0=no damage to plant). A digest of the protocol: as §1
For series [8], the system named is Avena fatua (AVEFA). The description is as above. Particulars: 360 h, rate 125 g/ha, evaluated 15 days after spraying, read-out: Post-emergence activity AVEFA (100=total damage to plant; 0=no damage to plant). It counts as in vivo. A digest of the protocol:
as §1

The subject of series [9] is Digitaria sanguinalis (DIGSA). The description is as above. It counts as in vivo. Particulars: 360 h, rate 125 g/ha, evaluated 15 days after spraying, read-out: Post-emergence activity DIGSA (100=total damage to plant; 0=no damage to plant). A digest of the protocol: as §1
Series [10] has as its system Echinochloa crus-galli (ECHCG). The series is described as above. Format: in vivo. The conditions noted are these: 360 h, rate 125 g/ha, evaluated 15 days after spraying, read-out: Post-emergence activity ECHCG (100=total damage to plant; 0=no damage to plant). A digest of the protocol: as §1
The test system of series [11] is Lolium perenne (LOLPE). Described as above. It counts as in vivo. Particulars: 360 h, rate 125 g/ha, evaluated 15 days after spraying, read-out: Post-emergence activity LOLPE (100=total damage to plant; 0=no damage to plant). Put shortly: as §1
For series [12], the system named is Setaria faberi (SETFA). Described as above. Format: in vivo. The conditions noted are these: 360 h, rate 125 g/ha, evaluated 15 days after spraying, read-out: Post-emergence activity SETFA (100=total damage to plant; 0=no damage to plant). A digest of the protocol:
as §1

As usually defined, the melting point is the temperature, or range, at which the solid turns liquid.

With `CCc1ccc(-c2ccc(Cl)cc2)cc1C1=C(O)C2CCCC(C1=O)C2=O` (stereo not shown) [Compound B-53], the melting point was 79.5 °C.

Regarding `CCc1ccc(-c2ccc(Cl)cc2)cc1C1=C(O)C(C)(C)C(=O)C(C)(C)C1=O` [Compound B-1], the pest or weed control at 500 g/ha in [1] is 40%; with Avena fatua (AVEFA) [2], 60%; in series [3], 100%; in [4], 100%; in the series with Lolium perenne (LOLPE) [5] it was 60%; in the series on Setaria faberi (SETFA) [6] it was 100%. Moreover, the pest or weed control at 125 g/ha in [7] is 30%; in the series with Avena fatua (AVEFA) [8], 30%; in series [9], 100%; in series [10] it was 100%; with Lolium perenne (LOLPE) [11], 80%; in the series on Setaria faberi (SETFA) [12], 90%.

For the molecule `Cc1ccc(-c2ccc(Cl)cc2)cc1C1=C(O)COCC1=O` [Compound A-3], the pest or weed control at 500 g/ha in series [1] is 30%; in the series with Avena fatua (AVEFA) [2], 20%; in [3] it was 70%; in series [4], 70%; in the series on Lolium perenne (LOLPE) [5], 20%; in the series on Setaria faberi (SETFA) [6], 50%. Further, the pest or weed control at 125 g/ha was determined as 0% in series [7]; 0% with Avena fatua (AVEFA) [8]; 40% in [9]; 70% in series [10]; 0% in the series with Lolium perenne (LOLPE) [11]; 60% in the series with Setaria faberi (SETFA) [12].

In the case of `Cc1ccc(-c2ccc(Cl)cc2)cc1C1=C(O)[C@@]2(C)CC[C@](C)(O2)C1=O` [Compound A-40], the pest or weed control at 250 g/ha is 30% in series [1]; 10% in the series with Avena fatua (AVEFA) [2]; 70% in [3]; 70% in series [4]; 20% in the series on Lolium perenne (LOLPE) [5]; 70% in the series with Setaria faberi (SETFA) [6]. Moreover, the pest or weed control at 125 g/ha in [7] was found to be 70%; in the series on Avena fatua (AVEFA) [8], 60%; in [9], 70%; in series [10], 100%; with Lolium perenne (LOLPE) [11], 60%; in the series on Setaria faberi (SETFA) [12], 70%.

On to `CCc1ccc(-c2ccc(Cl)cc2)cc1C1=C(O)C(C)(C)SC(C)(C)C1=O` [Compound C-1], for which the pest or weed control at 500 g/ha is 20% in series [1]; 20% in the series on Avena fatua (AVEFA) [2]; 30% in [3]; 50% in [4]; 30% with Lolium perenne (LOLPE) [5]; 30% with Setaria faberi (SETFA) [6]. Moreover, the pest or weed control at 125 g/ha in series [7] was found to be 50%; in the series on Avena fatua (AVEFA) [8], 70%; in series [9], 100%; in series [10], 100%; in the series on Lolium perenne (LOLPE) [11] it was 30%; in the series on Setaria faberi (SETFA) [12], 80%.

On to `Cc1ccc(-c2ccc(C(F)(F)F)cc2)cc1C1=C(O)C(C)(C)OC(C)(C)C1=O` [Compound A-10], for which the pest or weed control at 250 g/ha in series [1] was determined as 40%; in the series with Avena fatua (AVEFA) [2], 50%; in series [3], 100%; in series [4] it was 100%; in the series with Lolium perenne (LOLPE) [5], 60%; in the series on Setaria faberi (SETFA) [6], 100%. In addition, the pest or weed control at 125 g/ha in [7] amounted to 30%; in the series with Avena fatua (AVEFA) [8], 20%; in series [9] it was 100%; in series [10], 100%; in the series on Lolium perenne (LOLPE) [11], 0%; in the series on Setaria faberi (SETFA) [12] it was 50%.

Turning to `CCc1ccc(-c2ccc(Cl)cc2)cc1C1=C(O)C2(CCCC2)OCC1=O` [Compound A-36], the pest or weed control at 250 g/ha amounted to 60% in series [1]; 60% in the series with Avena fatua (AVEFA) [2]; 100% in series [3]; 100% in series [4]; 80% with Lolium perenne (LOLPE) [5]; 90% with Setaria faberi (SETFA) [6]. The pest or weed control at 125 g/ha is 40% in series [7]; 0% in the series with Avena fatua (AVEFA) [8]; 70% in series [9]; 70% in [10]; 70% in the series on Lolium perenne (LOLPE) [11]; 60% with Setaria faberi (SETFA) [12].

Take `CCc1ccc(-c2ccc(Cl)cc2)cc1C1=C(O)C(C)(C)S(=O)(=O)C(C)(C)C1=O` [Compound C-3]: the pest or weed control at 250 g/ha in [1] turned out to be 60%; with Avena fatua (AVEFA) [2], 80%; in series [3] it was 90%; in [4] it was 70%; in the series on Lolium perenne (LOLPE) [5], 10%; in the series on Setaria faberi (SETFA) [6] it was 60%. For the same molecule, the pest or weed control at 125 g/ha in series [7] is 70%; in the series on Avena fatua (AVEFA) [8], 80%; in series [9], 100%; in [10], 100%; with Lolium perenne (LOLPE) [11] it was 50%; in the series with Setaria faberi (SETFA) [12], 90%.

For the origin of these results see US8680012B2, “4-phenyl-pyrane-3,5-diones,4-phenyl-thiopyrane-3,6-diones and cyclohexanetriones as novel herbicides” (Syngenta Crop Protection LLC, priority 2006, dated 2014).
